Reference: patent publication US20230322812A1, “CRYSTALLINE FORM OF HETEROBICYCLIC COMPOUND” (TAIHO PHARMACEUTICAL CO., LTD., priority 2020, published 2023)

Columns and labels:
[1] = Differential scanning calorimetry (phase transition on heating); format: physicochemical; details: crystal I of Example 1; temperature increased
Description: (ii) Differential Scanning calorimetry Measurement (DSC Measurement)
DSC measurement was performed under the following conditions.
Device: METTLER TOLEDO: DSC1 STAR System
Sample Container: made of aluminum
Temperature Range: 25 to 400° C.
Temperature Increase Rate: 10° C./min
Atmospheric Gas: Nitrogen
Nitrogen Gas Flow: 30 ml/min
(§1) Crystal I of compound 1 was stored at 40° C. (humidity is not controlled), 40° C. (humidity 75%), and 60° C. (humidity is not controlled) for 4 weeks. Thereafter, the chemical purity was measured by high-performance liquid chromatography, and the change was 0.5% or less under all conditions.

[2] = Oral absorbability in rats (plasma concentration of compound 1); format: in vivo; details: 30 mg/kg, male Sprague Dawley rats
Description: Crystal I of compound 1 was suspended in a 0.5% HPMC aqueous solution, and orally administered to male Sprague Dawley rats which were supplied from Charles River Laboratories Japan, Inc. in a dosage of 30 mg/kg. After 1, 2, 4, 6, 8, and 24 hours from administration, blood of each rat was collected from the left jugular vein, and the concentration of compound 1 in plasma was measured.

[3] = Dynamic vapor sorption (DVS) system analysis; format: physicochemical
Description: Dynamic vapor sorption (DVS) system analysis was performed under the following conditions.
Apparatus: VTI SA+(manufactured by TA Instruments Inc.)
Drying temperature: 60° C.
Drying equilibrium: Within the range not exceeding 300 minutes, the sample was confirmed not to decrease by 0.01 wt % in 5 minutes
Measurement temperature: 25° C.
Humidification equilibrium: Within the range not exceeding 120 minutes, the sample was confirmed not to increase by 0.01 wt % in 5 minutes
Relative Humidity Program: An increase by 5% RH from 5% RH to 95% RH and a decrease by 5% RH from 95% RH to 5% RH
A dedicated quartz holder was filled with 10 to 15 mg of crystal I of compound 1, and the weight of each sample at each humidity was continuously measured and recorded under the conditions described above. The device and data processing were handled in accordance with the method and procedure instructed for each device.

[4] = Solid stability of crystal I (storage, chemical purity by HPLC); format: physicochemical; details: stored at 40° C. (humidity not controlled), 40° C. (humidity 75%) and 60° C. (humidity not controlled) for 4 weeks, all conditions
Description: (iii) High-Performance Liquid Chromatography
Measurement by high-performance liquid chromatography was performed under the following conditions.
Mobile Phase A: 10 mM phos. Buffer (pH6.3)/acetonitrile (95:5)
Mobile Phase B: acetonitrile
Column: Gemini C18 (4.6x 150 mm, 3 μm)/Phenomenex
as §1

With `Cn1nc2ccc(-c3c[nH]c4nc(N5[C@H]6CC[C@@H]5[C@H](N)C6)n(C)c(=O)c34)c(Cl)c2c1Cl` (single isomer, unassigned) [Crystal I] the “phase transition peak in DSC measurement” value [1] was “no peak indicating a phase transition”, the “oral absorbability (plasma concentration reached)” value ([2]; 1-24 hours after administration) was “achieved a sufficient concentration that provides a medicinal effect” and the Cmax ([2]; rat, suspended in 0.5% HPMC aqueous solution, plasma) was 3.5 µM. The AUC(0-t) ([2]; rat, suspended in 0.5% HPMC aqueous solution, plasma, read-out: AUC0-24) was 37 µM·h, the “change in weight due to changes in humidity (DVS)” value ([3]; 25° C., 5% RH to 95% RH and back to 5% RH) was “no changes in weight” and the “powder X-ray crystal analysis before and after moisture adsorption and desorption” value ([3]; before and after DVS moisture adsorption and desorption) was “did not change”. The “change of chemical purity after storage” value [4] was ≤ 0.5%.
